Experimental data published in ChEMBL document CHEMBL1145629, “Design of (N)-methanocarba adenosine 5'-uronamides as species-independent A3 receptor-selective agonists” (Bioorg Med Chem Lett, 2008).

How the values were obtained:
Adenosine receptor A2a [1] = target: T1, Adenosine receptor A2a (Homo sapiens, UniProt P29274); experiment: Displacement of radioligand from human A2A adenosine receptor expressed in HEK293 cells at 10 uM; assay type: cell-based
[2] = target: Adenosine receptor A2a (Mus musculus) (UniProt Q60613); experiment: Displacement of [3H]2-[p-(2-carboxyethyl)phenyl-ethylamino]-5'-N-ethylcarbox-amidoadenosine from mouse recombinant adenosine A2A receptor expressed in HEK293 at 100 uM; assay type: cell-based
Adenosine receptor A2a (Mus musculus), sequence (Q60613 whole entry): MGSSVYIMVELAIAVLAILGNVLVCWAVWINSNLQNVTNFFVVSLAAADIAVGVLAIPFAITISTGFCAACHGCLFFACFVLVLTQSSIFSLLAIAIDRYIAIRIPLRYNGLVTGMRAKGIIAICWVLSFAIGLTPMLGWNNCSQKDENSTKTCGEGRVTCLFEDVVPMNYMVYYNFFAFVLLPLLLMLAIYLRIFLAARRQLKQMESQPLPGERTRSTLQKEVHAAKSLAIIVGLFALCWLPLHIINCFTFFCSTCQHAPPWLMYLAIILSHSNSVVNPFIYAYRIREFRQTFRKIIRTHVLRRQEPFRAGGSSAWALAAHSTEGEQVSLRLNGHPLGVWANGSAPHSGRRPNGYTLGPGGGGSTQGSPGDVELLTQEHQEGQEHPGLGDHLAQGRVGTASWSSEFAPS

Adenosine receptor A3 [3] = target: T2, Adenosine receptor A3 (Homo sapiens, UniProt P0DMS8); experiment: Displacement of radioligand from human adenosine A3 receptor expressed in CHO cells; assay type: cell-based
T2 sequence (P0DMS8 whole entry): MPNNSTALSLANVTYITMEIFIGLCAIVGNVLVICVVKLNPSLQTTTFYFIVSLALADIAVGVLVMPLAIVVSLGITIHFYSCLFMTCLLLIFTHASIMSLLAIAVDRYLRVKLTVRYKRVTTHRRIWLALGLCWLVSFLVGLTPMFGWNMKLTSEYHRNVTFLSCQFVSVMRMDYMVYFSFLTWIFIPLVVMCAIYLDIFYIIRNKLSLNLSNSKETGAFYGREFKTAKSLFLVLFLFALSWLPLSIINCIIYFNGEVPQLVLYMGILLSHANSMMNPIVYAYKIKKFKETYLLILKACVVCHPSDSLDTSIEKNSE

Mus musculus = species on record: Mus musculus; experiment: Selectivity for mouse adenosine A3 receptor over mouse adenosine A1 receptor
[4] = target: Adenosine receptors; A1 & A3 (Homo sapiens) (UniProt P30542+P0DMS8); experiment: Selectivity for human adenosine A3 receptor over human adenosine A1 receptor
Adenosine receptor A1 [5] = target: T3, Adenosine receptor A1 (Mus musculus, UniProt Q60612); experiment: Displacement of [125I]N6-(4-amino-3-iodobenzyl)adenosine-5'-N-methyl-uronamide from mouse recombinant adenosine A1 receptor expressed in HEK293 cells; assay type: cell-based
T3 sequence (Q60612 whole entry): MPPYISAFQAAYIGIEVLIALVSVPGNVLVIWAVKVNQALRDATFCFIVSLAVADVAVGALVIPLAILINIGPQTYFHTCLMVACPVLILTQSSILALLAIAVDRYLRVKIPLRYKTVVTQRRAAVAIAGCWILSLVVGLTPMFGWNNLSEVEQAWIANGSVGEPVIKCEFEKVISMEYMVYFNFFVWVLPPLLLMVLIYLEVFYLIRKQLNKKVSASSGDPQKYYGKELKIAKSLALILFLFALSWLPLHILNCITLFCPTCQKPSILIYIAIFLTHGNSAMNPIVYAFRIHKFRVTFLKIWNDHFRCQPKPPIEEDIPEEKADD

Adenosine receptor A3 [6] = target: T4, Adenosine receptor A3 (Mus musculus, UniProt Q61618); experiment: Displacement of [125I]N6-(-amino-3-iodobenzyl)adenosine-5'-N-methyl-uronamide from mouse recombinant adenosine A3 receptor expressed in HEK293 cells; assay type: cell-based
T4 sequence (Q61618 whole entry): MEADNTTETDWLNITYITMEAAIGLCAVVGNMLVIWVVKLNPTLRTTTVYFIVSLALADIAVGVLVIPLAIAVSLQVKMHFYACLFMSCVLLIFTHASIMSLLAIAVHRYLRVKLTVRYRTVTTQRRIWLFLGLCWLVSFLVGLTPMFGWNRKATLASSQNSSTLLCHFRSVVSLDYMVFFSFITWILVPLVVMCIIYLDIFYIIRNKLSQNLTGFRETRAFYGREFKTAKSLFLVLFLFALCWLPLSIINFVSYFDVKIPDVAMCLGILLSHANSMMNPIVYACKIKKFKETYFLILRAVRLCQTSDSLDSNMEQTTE

Adenosine receptor A1 [7] = target: T5, Adenosine receptor A1 (Homo sapiens, UniProt P30542); experiment: Displacement of radioligand from human adenosine A1 receptor expressed in CHO cells; assay type: cell-based
T5 sequence (P30542 whole entry): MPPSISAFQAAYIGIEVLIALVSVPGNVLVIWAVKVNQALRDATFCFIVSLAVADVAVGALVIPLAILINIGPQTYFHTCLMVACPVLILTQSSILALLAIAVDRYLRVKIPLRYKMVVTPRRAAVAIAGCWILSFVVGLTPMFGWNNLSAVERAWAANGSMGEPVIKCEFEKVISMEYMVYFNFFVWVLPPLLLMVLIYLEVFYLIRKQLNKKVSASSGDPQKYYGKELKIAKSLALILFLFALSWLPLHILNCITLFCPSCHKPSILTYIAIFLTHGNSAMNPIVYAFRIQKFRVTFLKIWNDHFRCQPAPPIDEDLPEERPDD

Adenosine receptor A2a [8] = target: Adenosine receptor A2a (Rattus norvegicus, UniProt P30543); experiment: Displacement of radioligand from rat adenosine A2A receptor
Adenosine receptor A2a (Rattus norvegicus, UniProt P30543), sequence (P30543 whole entry): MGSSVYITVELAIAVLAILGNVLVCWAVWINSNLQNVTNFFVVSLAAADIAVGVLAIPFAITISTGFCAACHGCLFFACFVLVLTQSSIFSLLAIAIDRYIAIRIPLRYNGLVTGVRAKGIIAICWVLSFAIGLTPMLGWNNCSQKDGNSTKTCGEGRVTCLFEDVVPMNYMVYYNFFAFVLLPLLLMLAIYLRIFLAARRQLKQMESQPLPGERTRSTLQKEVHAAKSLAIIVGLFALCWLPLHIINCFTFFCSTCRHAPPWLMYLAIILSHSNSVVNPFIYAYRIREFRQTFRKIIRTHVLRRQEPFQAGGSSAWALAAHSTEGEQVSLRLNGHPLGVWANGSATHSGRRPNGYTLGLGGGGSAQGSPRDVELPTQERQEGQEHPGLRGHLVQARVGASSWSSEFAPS

Adenosine receptor A2b [9] = target: T6, Adenosine receptor A2b (Homo sapiens, UniProt P29275); experiment: Activation of human adenosine A2B receptor
T6 sequence (P29275 whole entry): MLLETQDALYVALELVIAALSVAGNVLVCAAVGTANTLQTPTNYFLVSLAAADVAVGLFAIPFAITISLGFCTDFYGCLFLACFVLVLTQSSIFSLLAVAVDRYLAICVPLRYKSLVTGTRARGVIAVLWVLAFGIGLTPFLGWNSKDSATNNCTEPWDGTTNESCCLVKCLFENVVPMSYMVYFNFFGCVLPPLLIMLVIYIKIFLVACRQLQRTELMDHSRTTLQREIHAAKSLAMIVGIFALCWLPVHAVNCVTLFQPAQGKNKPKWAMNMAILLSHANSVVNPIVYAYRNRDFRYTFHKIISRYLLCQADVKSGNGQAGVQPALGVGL

Adenosine receptor A2a [10] = target: Adenosine receptor A2a (Mus musculus, UniProt Q60613); experiment: Displacement of [3H]2-[p-(2-carboxyethyl)phenyl-ethylamino]-5'-N-ethylcarboxamidoadenosine from mouse recombinant adenosine A2A receptor expressed in HEK293 cells; assay type: cell-based
Adenosine receptor A2a (Mus musculus, UniProt Q60613), sequence (Q60613 whole entry): as the sequence (Q60613 whole entry) above

Adenosine receptor A2b [11] = target: T7, Adenosine receptor A2b (Mus musculus, UniProt Q60614); experiment: Activation of mouse adenosine A2B receptor
T7 sequence (Q60614 whole entry): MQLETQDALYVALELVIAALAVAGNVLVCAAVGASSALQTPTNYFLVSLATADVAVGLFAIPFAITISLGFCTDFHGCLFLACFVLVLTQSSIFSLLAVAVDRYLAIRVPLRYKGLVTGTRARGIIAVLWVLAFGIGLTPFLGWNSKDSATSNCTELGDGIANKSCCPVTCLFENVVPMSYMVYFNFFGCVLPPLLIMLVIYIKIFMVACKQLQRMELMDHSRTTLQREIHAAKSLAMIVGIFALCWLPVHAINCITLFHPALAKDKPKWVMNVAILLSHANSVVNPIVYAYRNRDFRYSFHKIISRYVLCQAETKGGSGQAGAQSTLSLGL

Adenosine receptor A2a [12] = target: T1, Adenosine receptor A2a; experiment: Displacement of radioligand from human adenosine A2A receptor expressed in HEK293 cells; assay type: cell-based

T1 sequence (P29274 whole entry): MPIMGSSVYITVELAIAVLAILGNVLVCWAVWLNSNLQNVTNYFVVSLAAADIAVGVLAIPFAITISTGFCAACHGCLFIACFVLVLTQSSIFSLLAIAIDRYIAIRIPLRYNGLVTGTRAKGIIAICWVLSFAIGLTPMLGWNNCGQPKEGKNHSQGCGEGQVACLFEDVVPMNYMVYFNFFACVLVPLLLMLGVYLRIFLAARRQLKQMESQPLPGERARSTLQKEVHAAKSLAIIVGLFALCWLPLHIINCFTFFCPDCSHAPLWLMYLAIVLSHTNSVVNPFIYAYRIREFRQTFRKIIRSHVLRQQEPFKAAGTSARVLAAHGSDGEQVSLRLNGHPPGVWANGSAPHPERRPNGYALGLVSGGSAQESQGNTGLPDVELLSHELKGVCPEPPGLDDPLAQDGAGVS

| inhibition (Adenosine receptor A2a [1]) | inhibition [2] | Ki (Adenosine receptor A1 [5]) | Ki (Adenosine receptor A3 [6]) | Ki (Adenosine receptor A2a [10]) | Compound | Ratio Ki (Mus musculus) | Ratio Ki [4] | also measured |
| --- | --- | --- | --- | --- | --- | --- | --- | --- |
| 80% | 68% |  |  |  | CNC(=O)[C@@]12C[C@@H]1[C@@H](n1cnc3c(NCc4cccc(C#CCCCC(=O)NCCNC(C)=O)c4)nc(Cl)nc31)[C@H](O)[C@@H]2O |  |  |  |
| 43% | 8% |  |  |  | CNC(=O)[C@@]12C[C@@H]1[C@@H](n1cnc3c(NCc4cccc(Cl)c4)nc(C#CCCCC(=O)O)nc31)[C@H](O)[C@@H]2O |  |  |  |
| 6% |  | 55.3 nM | 49 nM |  | CNC(=O)[C@@]12C[C@@H]1[C@@H](n1cnc3c(NC)nc(Cl)nc31)[C@H](O)[C@@H]2O |  |  | Ki (Adenosine receptor A2a [8]): > 10 µM |
|  |  | 15.3 nM | 1.49 nM | 10.4 µM | CNC(=O)[C@@]12C[C@@H]1[C@@H](n1cnc3c(NCc4cccc(Cl)c4)nc(Cl)nc31)[C@H](O)[C@@H]2O |  |  | EC50 (Adenosine receptor A2b [9]): ≥ 10 µM |
|  |  | 5.9 nM | 0.087 nM | 1 µM | CNC(=O)[C@H]1O[C@@H](n2cnc3c(NCc4cccc(I)c4)ncnc32)[C@H](O)[C@@H]1O [IB-MECA] |  |  | EC50 (Adenosine receptor A2b [11]): ≥ 10 µM |
| 48% | 41% |  |  |  | C#Cc1nc(NCc2cccc(Cl)c2)c2ncn([C@H]3[C@H](O)[C@H](O)[C@]4(C(=O)NC)C[C@H]34)c2n1 |  |  |  |
|  |  |  |  | 38.2 µM | CNC(=O)C12C[C@@H]1[C@@H](n1cnc3c(NC4CC4c4ccccc4)nc(Cl)nc31)[C@H](O)[C@@H]2O (single isomer, unassigned) |  |  | EC50 (Adenosine receptor A2b [9]): ≥ 10 µM |
|  |  | 7.32 nM | 0.8 nM | 5.35 µM | CNC(=O)[C@@]12C[C@@H]1[C@@H](n1cnc3c(NCc4cccc(I)c4)nc(Cl)nc31)[C@H](O)[C@@H]2O |  |  | EC50 (Adenosine receptor A2b [9]): ≥ 10 µM |
| 80% | 42% |  |  |  | CCCC#Cc1nc(NCc2cccc(Cl)c2)c2ncn([C@H]3[C@H](O)[C@H](O)[C@]4(C(=O)NC)C[C@H]34)c2n1 |  |  |  |
|  |  | 29 nM | 1.72 nM | 44.7 µM | CNC(=O)C12C[C@@H]1[C@@H](n1cnc3c(NCc4cc(OC)ccc4OC)nc(Cl)nc31)[C@H](O)[C@@H]2O (single isomer, unassigned) | 17 | 1100 | EC50 (Adenosine receptor A2b [9]): ≥ 10 µM; Ki (Adenosine receptor A2a [12]): 10 µM |
| 58% | 39% | 151 nM | 11.9 nM |  | CNC(=O)[C@@]12C[C@@H]1[C@@H](n1cnc3c(NCc4cccc(C#CCCCC(=O)NCCN)c4)nc(Cl)nc31)[C@H](O)[C@@H]2O | 13 | 52 | Ki (Adenosine receptor A3 [3]): 5.21 nM; Ki (Adenosine receptor A1 [7]): 271 nM |

The next lines start with the compound.

| Compound | inhibition (Adenosine receptor A2a [1]) | inhibition [2] | Ki (Adenosine receptor A1 [5]) | Ki (Adenosine receptor A3 [6]) | Ki (Adenosine receptor A2a [10]) | Ratio Ki (Mus musculus) | Ratio Ki [4] | also measured |
| --- | --- | --- | --- | --- | --- | --- | --- | --- |
| CNC(=O)[C@@]12C[C@@H]1[C@@H](n1cnc3c(NCc4cccc(Cl)c4)nc(C#C[Si](C)(C)C)nc31)[C@H](O)[C@@H]2O | 52% | 20% | 159 nM | 4.46 nM |  | 35.6 | 160 | Ki (Adenosine receptor A3 [3]): 0.98 nM; Ki (Adenosine receptor A1 [7]): 160 nM |
| CNC(=O)[C@@]12C[C@@H]1[C@@H](n1cnc3c(NCc4cccc(C#CCCCC(=O)O)c4)nc(Cl)nc31)[C@H](O)[C@@H]2O | 14% | 5% |  |  |  |  |  |  |
| CNC(=O)C12C[C@@H]1[C@@H](n1cnc3c(NCc4cccc(Cl)c4)nc(I)nc31)[C@H](O)[C@@H]2O (single isomer, unassigned) |  | 40% |  |  |  |  |  | Ki (Adenosine receptor A2a [12]): > 10 µM |
| CNC(=O)C12C[C@@H]1[C@@H](n1cnc3c(NCC(c4ccccc4)c4ccccc4)nc(Cl)nc31)[C@H](O)[C@@H]2O (single isomer, unassigned) |  |  | 6.83 nM | 1.67 nM | 1.81 µM | 4.1 | 1900 | EC50 (Adenosine receptor A2b [9]): ≥ 10 µM |
| CNC(=O)C12C[C@@H]1[C@@H](n1cnc3c(NCc4cccc(Cl)c4)nc(SC)nc31)[C@H](O)[C@@H]2O (single isomer, unassigned) |  | 32% | 98.9 nM | 1.19 nM |  | 83 | 410 | Ki (Adenosine receptor A2a [12]): 10 µM |
| CNC(=O)[C@@]12C[C@@H]1[C@@H](n1cnc3c(NCc4cccc(Cl)c4)nc(C#CCCCC(=O)NCCN)nc31)[C@H](O)[C@@H]2O | 81% | 31% | 546 nM | 8.6 nM |  | 64 | 209 | Ki (Adenosine receptor A3 [3]): 2.17 nM; Ki (Adenosine receptor A1 [7]): 454 nM |
| CNC(=O)[C@H]1O[C@@H](n2cnc3c(NCc4cccc(I)c4)nc(Cl)nc32)[C@H](O)[C@@H]1O [NAMODENOSON] |  |  | 35 nM |  | 10 µM |  |  | EC50 (Adenosine receptor A2b [11]): ≥ 10 µM |
| CNC(=O)[C@@]12C[C@@H]1[C@@H](n1cnc3c(NCc4cc(OC)ccc4OC)nc(I)nc31)[C@H](O)[C@@H]2O | 35% | 14% |  |  |  |  |  |  |
| CNC(=O)C12C[C@@H]1[C@@H](n1cnc3c(NCc4cccc(Br)c4)nc(Cl)nc31)[C@H](O)[C@@H]2O (single isomer, unassigned) |  |  | 8.79 nM | 0.9 nM | 6.39 µM | 9.8 | 710 | EC50 (Adenosine receptor A2b [9]): ≥ 10 µM |
| CNC(=O)C12C[C@@H]1[C@@H](n1cnc3c(NCc4cccc(C#CCO)c4)nc(Cl)nc31)[C@H](O)[C@@H]2O (single isomer, unassigned) | 56% | 11% |  |  |  |  |  |  |
| CNC(=O)[C@@]12C[C@@H]1[C@@H](n1cnc3c(NOC)nc(Cl)nc31)[C@H](O)[C@@H]2O | 2% | 2% | 1160 nM | 877 nM |  | 1.3 | 1.8 | Ki (Adenosine receptor A3 [3]): 149 nM; Ki (Adenosine receptor A1 [7]): 265 nM |
| CNC(=O)[C@@]12C[C@@H]1[C@@H](n1cnc3c(NCc4cccc(Cl)c4)nc(C#CCCCC(=O)OC)nc31)[C@H](O)[C@@H]2O | 49% | 50% | 1340 nM | 4.65 nM |  |  |  | Ki (Adenosine receptor A1 [7]): 482 nM |
